Assay [1] has as its target KRAS-WT (Homo sapiens, UniProt P01116). The assay can be described thus: SOS-catalyzed nucleotide exchange assay (Procedure A, TR-FRET), KRAS-WT. Format: biochemical. Particulars: nucleotide exchange, read-out: KRAS WT GNE IC50. A digest of the protocol: (§1)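 Signal ratio (520/495 nm, excitation 340 nm) reports Bodipy-GDP retention on biotinylated RAS after SOS-catalyzed exchange with 3 mM GTP. SOS was 40 nM, except 160 nM for G12V. Room-temperature exchange lasted 60 min (90 min for G12V), following a 60 min compound preincubation.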
(Time-resolved FRET reads energy transfer from a long-lived donor to a nearby acceptor.)

The target of assay [2] is KRAS-G12D (Homo sapiens, UniProt P01116, G12D). The assay can be described thus: SOS-catalyzed nucleotide exchange assay (Procedure A, TR-FRET), KRAS-G12D. The format is biochemical. The conditions noted are these: nucleotide exchange, read-out: KRAS G12D GNE IC50. The procedure, abridged: as §1
The target of assay [3] is KRAS-G12V (Homo sapiens, UniProt P01116, G12V). Nature of the assay: SOS-catalyzed nucleotide exchange assay (Procedure A, TR-FRET), KRAS-G12V. Format: biochemical. Particulars: nucleotide exchange, read-out: KRAS G12V GNE IC50. The procedure, abridged:
as §1

The test system of assay [4] is AsPC-1 cells. The assay can be described thus: Cellular phospho-ERK assay, AsPC-1 cells (homozygous KRAS-G12D). Format: cell-based. The conditions noted are these: read-out: AsPC1 pERK IC50. The procedure, abridged: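 10k–15k cells/well, o/n attach; cpd 2 h, 37 °C, 10-pt 1:3 from 30 μM final; lyse with protease/phosphatase inhibitors 30 min RT; multiplex SureFire p-ERK + total ERK; IC50 via 4PL on ratio.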

Where [5] appears, read: Homo sapiens, ASPC1, 2 h, KRAS-G12D, 2 hours.
Setting [6] is: Homo sapiens, ASPC1, 2 h, 2 hours compound incubation.

Read-outs that look alike come from different tables or passages of the source.

What is called IC50 is the midpoint of a concentration-inhibition curve.

KRAS-WT, sequence (P01116 with tags, fused parts or gaps isoform P01116-2): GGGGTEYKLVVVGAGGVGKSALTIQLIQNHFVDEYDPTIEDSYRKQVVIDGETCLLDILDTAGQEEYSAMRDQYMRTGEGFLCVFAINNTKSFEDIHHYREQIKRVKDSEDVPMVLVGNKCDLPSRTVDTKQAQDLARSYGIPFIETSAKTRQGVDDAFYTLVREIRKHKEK
KRAS-G12D, sequence (P01116 with tags, fused parts or gaps isoform P01116-2 G12D): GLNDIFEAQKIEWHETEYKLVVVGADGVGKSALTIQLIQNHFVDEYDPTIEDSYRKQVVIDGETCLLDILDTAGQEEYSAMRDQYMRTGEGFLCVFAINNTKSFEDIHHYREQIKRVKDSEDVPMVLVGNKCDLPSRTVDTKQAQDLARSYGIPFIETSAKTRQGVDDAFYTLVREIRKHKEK
KRAS-G12V, sequence (P01116 with tags, fused parts or gaps isoform P01116-2 G12V): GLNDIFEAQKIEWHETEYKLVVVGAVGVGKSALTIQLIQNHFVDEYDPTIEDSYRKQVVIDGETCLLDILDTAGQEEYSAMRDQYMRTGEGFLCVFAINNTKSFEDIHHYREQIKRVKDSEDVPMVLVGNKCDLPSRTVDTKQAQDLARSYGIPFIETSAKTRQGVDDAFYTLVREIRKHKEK

Take `CO[C@@H]1C[C@@H](COc2nc(N3CCOC[C@@](C)(O)C3)c3c(n2)sc2c(-c4c(C5CC5)c(C(F)(F)F)cc5[nH]ncc45)nccc23)N(C)C1` [Ex-85, (6S)-4-(8-(5-cyclopropyl-6-(trifluoromethyl)-1H-indazol-4-yl)-2-(((2S,4R)-4-methoxy-1-methylpyrrolidin-2-yl)methoxy)pyrido[4′,3′:4,5]thi-eno[2,3-d]pyrimidin-4-yl)-6-methyl-1,4-oxazepan-6-ol]: the IC50 in assay [1] was determined as 81.1 nM; in assay [2] it was 38.8 nM; in assay [3], 44.3 nM; in assay [4] (setting [5]), 764 nM.

As to `C[C@@]1(O)COCCN(c2nc(OC[C@@]34CCCN3C[C@H](F)C4)nc3sc4c(-c5c6c(cc7[nH]ncc57)CCC6C(F)(F)F)nccc4c23)C1` (stereo partly shown) [Ex-92], the IC50 in assay [1] amounted to 482 nM; in assay [2], 226 nM; in assay [3], 340 nM; in assay [4] (setting [5]), 1860 nM.

Regarding `CN1CCc2cc3[nH]ncc3c(-c3nccc4c3sc3nc(OC[C@@]56CCCN5C[C@H](F)C6)nc(N5CCOC[C@@](C)(O)C5)c34)c21` [Ex-125, (6S)-4-(2-(((2R,7aS)-2-fluorotetrahydro-1H-pyrrolizin-7a(5H)-yl)methoxy)-8-(5-methyl-1,5,6,7-tetrahydropyrrolo[2,3-f]indazol-4-yl)pyrido[4′,3′:4,5]thieno[2,3-d]pyrimidin-4-yl)-6-methyl-1,4-oxazepan-6-ol], the IC50 in assay [1] came to 161 nM; in assay [2], 66 nM; in assay [3] it was 94 nM; in assay [4] (setting [5]), 1030 nM.

Take `CN(C)C1CC(F)(F)C2C[C@]12COc1nc(N2CCOC[C@@](C)(O)C2)c2c(n1)sc1c(-c3c(C4(F)CC4)c(Cl)cc4[nH]ncc34)nccc12` (stereo partly shown) [Ex-271]: the IC50 came out at 78.8 nM in assay [1]; 42.2 nM in assay [2]; 37.3 nM in assay [3]; 244 nM in assay [4] (KRAS-G12D, 2 hours).

With `Cc1cc2[nH]ncc2c(-c2nccc3c2sc2nc(OC[C@@]45CCCN4C[C@H](F)C5)nc(N4CCOC[C@@](C)(O)C4)c23)c1SC(F)(F)F` [Ex-45, (6S)-4-(2-(((2R,7aS)-2-fluorotetrahydro-1H-pyrrolizin-7a(5H)-yl)methoxy)-8-(6-methyl-5-((trifluoromethyl)thio)-1H-indazol-4-yl)pyrido[4′,3′:4,5]thieno [2,3-d]pyrimidin-4-yl)-6-methyl-1,4-oxazepan-6-ol], the IC50 in assay [1] amounted to 374 nM; in assay [2], 167 nM; in assay [3], 153 nM; in assay [4] (setting [5]), 1110 nM.

Turning to `C[C@H]1C[C@@H](COc2nc(N3CCOC[C@@](C)(O)C3)c3c(n2)sc2c(-c4c(C5CC5)c(C(F)(F)F)cc5[nH]ncc45)nccc23)N(C)C1` [Ex-82, (6S)-4-(8-(5-cyclopropyl-6-(trifluoromethyl)-1H-indazol-4-yl)-2-(((2S,4S)-1,4-dimethylpyrrolidin-2-yl)methoxy)pyrido[4′,3′:4,5]thi-eno[2,3-d]pyrimidin-4-yl)-6-methyl-1,4-oxazepan-6-ol], the IC50 in assay [1] was 54.6 nM; in assay [2] it was 31.2 nM; in assay [3], 32.8 nM; in assay [4] (setting [5]) it was 592 nM.

In the case of `C[C@@]1(O)COCCN(c2nc(OC[C@@]34CCCN3C[C@H](F)C4)nc3sc4c(-c5c(-c6cc[nH]c6)c(Cl)cc6[nH]ncc56)nccc4c23)C1` [Ex-73, (6S)-4-(8-(6-chloro-5-(1H-pyrrol-3-yl)-1H-indazol-4-yl)-2-(((2R,7aS)-2-fluorotetrahydro-1H-pyrrolizin-7a(5H)-yl)methoxy)pyrido[4′,3′:4,5]thi-eno[2,3-d]pyrimidin-4-yl)-6-methyl-1,4-oxazepan-6-ol], the IC50 in assay [1] worked out at 60.4 nM; in assay [2], 9.67 nM; in assay [3] it was 52.2 nM; in assay [4] (setting [5]) it was 1060 nM.

In the case of `COc1cc2c(sc3nc(OC[C@@]45CCCN4C[C@H](F)C5)nc(N4CCOC[C@@](C)(O)C4)c32)c(-c2c(C(F)(F)F)c(C)cc3[nH]ncc23)n1` [Ex-27, (6S)-4-(2-(((2R,7aS)-2-fluorotetrahydro-1H-pyrrolizin-7a(5H)-yl)methoxy)-6-methoxy-8-(6-methyl-5-(trifluoromethyl)-1H-indazol-4-yl)pyrido[4′,3′:4,5]thieno[2,3-d]pyrimidin-4-yl)-6-methyl-1,4-oxazepan-6-ol], the IC50 in assay [1] is 793 nM; in assay [2], 196 nM; in assay [3], 221 nM; in assay [4] (setting [5]) it was 660 nM.

Consider `C[C@@]1(O)COCCN(c2nc(OC[C@]3(CN4CC5(CC5)C4)CC3(F)F)nc3sc4c(-c5c(C6(F)CC6)c(Cl)cc6[nH]ncc56)nccc4c23)C1` [Ex-250, (6S)-4-(2-(((R)-1-((5-azaspiro[2.3]hexan-5-yl)methyl)-2,2-difluorocyclopropyl)methoxy)-8-(6-chloro-5-(1-fluorocyclopropyl)-1H-indazol-4-yl)pyrido[4′,3′:4,5]thieno[2,3-d]pyrimidin-4-yl)-6-methyl-1,4-oxazepan-6-ol], for which the IC50 in assay [1] was determined as 36.2 nM; in assay [2], 8.56 nM; in assay [3], 18.6 nM; in assay [4] (setting [6]), 152 nM.

For the molecule `COCc1cc2[nH]ncc2c(-c2nccc3c2sc2nc(OC[C@@]45CCCN4C[C@H](F)C5)nc(N4CCOC[C@@](C)(O)C4)c23)c1C1CC1` [Ex-50, (6S)-4-(8-(5-cyclopropyl-6-(methoxymethyl)-1H-indazol-4-yl)-2-(((2R,7aS)-2-fluorotetrahydro-1H-pyrrolizin-7a(5H)-yl)methoxy)pyrido[4′,3′:4,5]thi-eno[2,3-d]pyrimidin-4-yl)-6-methyl-1,4-oxazepan-6-ol], the IC50 in assay [1] was found to be 326 nM; in assay [2], 243 nM; in assay [3], 291 nM; in assay [4] (setting [5]) it was 3960 nM.

`C[C@@]1(O)COCCN(c2nc(OC[C@@]34CCCN3C[C@H](F)C4)nc3sc4c(-c5cccc6c5CC5CC65)nccc4c23)C1` (single isomer, unassigned) [Ex-119]: the IC50 in assay [1] stood at 662 nM; in assay [2], 230 nM; in assay [3] it was 157 nM; in assay [4] (setting [5]), 2150 nM.

Turning to `CN(C)C1CC(F)(F)C2C[C@]12COc1nc(N2CCOC[C@@](C)(O)C2)c2c(n1)sc1c(-c3c(C4(F)CC4)c(Cl)cc4[nH]ncc34)nccc12` (stereo partly drawn) [Ex-270, (6S)-4-(8-(6-chloro-5-(1-fluorocyclopropyl)-1H-indazol-4-yl)-2-((2-(dimethylamino)-4,4-difluorobicy-clo[3.1.0]hexan-1-yl)methoxy)pyri-do[4′,3′:4,5]thi-eno[2,3-d]pyrimidin-4-yl)-6-methyl-1,4-oxazepan-6-ol], the IC50 in assay [1] was 27.9 nM; in assay [2], 8.78 nM; in assay [3], 30.9 nM; in assay [4] (setting [5]) it was 142 nM.

As for `C[C@@H]1CN(C[C@@]2(COc3nc(N4CCOC[C@@](C)(O)C4)c4c(n3)sc3c(-c5c(C6(F)CC6)c(Cl)cc6[nH]ncc56)nccc34)CC2(F)F)C[C@H](C)O1` [Ex-246, (6S)-4-(8-(6-chloro-5-(1-fluorocyclopropyl)-1H-indazol-4-yl)-2-(((R)-1-(((2R,6S)-2,6-dimethylmorpholino)methyl)-2,2-difluorocyclopropyl)methoxy)pyrido[4′,3′:4,5]thieno[2,3-d]pyrimidin-4-yl)-6-methyl-1,4-oxazepan-6-ol], the IC50 in assay [1] stood at 374 nM; in assay [2], 96.8 nM; in assay [3], 275 nM; in assay [4] (setting [6]), 1170 nM.

On to `Cn1c2nc(OC[C@@]34CCCN3C[C@H](F)C4)nc(N3CCOC[C@@](C)(O)C3)c2c2ccnc(-c3c(C4CC4)c(Cl)cc4[nH]ncc34)c21` (single isomer, unassigned) [Ex-2], for which the half-inhibitory concentration (IC50) in assay [1] turned out to be 64 nM; in assay [2] it was 35.4 nM; in assay [3], 36.8 nM; in assay [4] (setting [5]), 426 nM.

With `C[C@@]1(O)COCCN(c2nc(OC[C@@]34CCCN3C[C@H](F)C4)nc3sc4c(-c5c(C6(F)CC6)c(F)cc6[nH]ncc56)nccc4c23)C1` [Ex-53, (6S)-4-(8-(6-fluoro-5-(1-fluorocyclopropyl)-1H-indazol-4-yl)-2-(((2R,7aS)-2-fluorotetrahydro-1H-pyrrolizin-7a(5H)-yl)methoxy)pyrido[4′,3′:4,5]thi-eno[2,3-d]pyrimidin-4-yl)-6-methyl-1,4-oxazepan-6-ol], the IC50 turned out to be 91.2 nM in assay [1], 26.4 nM in assay [2], 46.7 nM in assay [3] and 465 nM in assay [4] (setting [5]).

Turning to `CN(C)C[C@@]1(COc2nc(N3CCOC[C@@](C)(O)C3)c3c(n2)sc2c(-c4c(C5CC5)c(Cl)cc5[nH]ncc45)nncc23)CC1(F)F` [Ex-287, (6S)-4-(8-(6-chloro-5-cyclopropyl-1H-indazol-4-yl)-2-(((R)-1-((dimethylamino)methyl)-2,2-difluorocyclopropyl)meth-oxy)pyrimido[5′,4′:4,5]thi-eno[2,3-d]pyridazin-4-yl)-6-methyl-1,4-oxazepan-6-ol], the IC50 in assay [1] came to 10.2 nM; in assay [2], 5.28 nM; in assay [3], 15.9 nM; in assay [4] (setting [5]), 41.5 nM.

(Values after patent US20260176289A1, “SMALL MOLECULE INHIBITORS OF KRAS PROTEINS” (Merck Sharp & Dohme LLC, priority 2022, published 2026).)
